Values joined by “and” are separate entries in the source; they are usually repeats but may differ in a detail not shown here. Equal values may be shown once. Where no end group is shown, it is not given here. [ ]: non-standard residue; d: D form. d2Nal = N[C@H](Cc1ccc2ccccc2c1)C(=O)O

Experiment [1] has as its target T1, Ghrelin/GHRP/GHS Receptor (Rattus norvegicus, UniProt O08725). Description: In vitro cell culture method: GH release from cell culture of pituitary cells, peptide alone or plus stimulator. To be noted: for GH release, first line of entry (mark P + S): stimulator 1 ng/ml; for Unstimulated Basal GH release: Table 8. More on the design: from cell culture of pituitary cells; endogenous in cells; host or cells: dispersed primary rat anterior pituitary cells, 4 days in culture. In kind it is cell-based. As to the method:
(§1) The peptides were synthesized by the solid phase method and purified by HPLC. GH was determined by Radioimmunoassay (RIA).
In vitro GH Release-Female rats of the CD-1 strain were housed in a constant temperature room at 24° C. with 14 h light and 10 h darkness. The rats were fed Purina Rat chow and water at libitum. All studies were started between 0800-1000 hours. Pituitaries of mature female Sprague Dawley rats were rapidly removed after decapitation, neurointermediate lobe discarded and then placed in a pH 7.4 buffer. The pituitaries were cut into ˜3-mm pieces and then transferred to a flask containing HEPS buffer with trypsin and incubated at 37° C. Cells were triturated several times during this period. After dispersion, the cells were collected by centrifugation, wash with DMEM and placed into culture well. Cell cultures were maintained for 4 days at 37° with 8% CO2 added to the incubator atmosphere. After 4 days in culture, cells were washed with lactated Ringer's solution adjusted to pH 7.2-7.4 and then vehicle, peptide alone or peptide plus stimulator was added to media. Incubation time was 60-120 minutes after which media was removed from each well for GH determination. The GH RIA reagents were distributed by the NIH. Control data was collected from cell cultures treated with only the corresponding vehicle in the absence of peptide or stimulator. Control stimulated data was collected from cell cultures treated with stimulator alone in the absence of any peptide.

In experiment [2] the target is T1, Ghrelin/GHRP/GHS Receptor. Put plainly: In vivo assay of GH release in rat, i.v. peptide alone or plus stimulator, serum GH by RIA. To be noted: Table 4; Pentobarbital Rats; peptide 30 μg i.v. + stimulator DAla-DβNal-Ala-Trp-DPhe-Lys-NH2 1 μg. The procedure: as §1
For the in vivo assay of GH Release in rat, immature female Sprague Dawley rats were obtained from Charles River from Wilmington, Mass. After arrival they were housed at 25° C. with a 14:10 h light:dark cycle. Water and Purina rat chow were available at libitum. Pups were weaned at 21 days of age.
Immature twenty six day old female Sprague Dawley rats, 3-6 rats per treatment dose, were pretreated with pentobarbital 20 minutes before iv injection of vehicle/peptide or peptide plus stimulator. Injection was made as a 0.1 ml solution. For the non-pentobarbital treated rat assay, peptides were administered iv into the tail vein of conscious rats. All animals were sacrificed by guillotine after iv peptide or vehicle. Trunk blood was collected at +10-15 minutes […], allowed to clot, centrifuged and serum stored until assayed for GH levels by RIA. The GH RIA reagents were distributed by the NIH. Control data was collected from rats treated with only the corresponding vehicle in the absence of peptide or stimulator. Control stimulated data was collected from rats treated with stimulator alone in the absence of any peptide.

T1 sequence (O08725 whole entry): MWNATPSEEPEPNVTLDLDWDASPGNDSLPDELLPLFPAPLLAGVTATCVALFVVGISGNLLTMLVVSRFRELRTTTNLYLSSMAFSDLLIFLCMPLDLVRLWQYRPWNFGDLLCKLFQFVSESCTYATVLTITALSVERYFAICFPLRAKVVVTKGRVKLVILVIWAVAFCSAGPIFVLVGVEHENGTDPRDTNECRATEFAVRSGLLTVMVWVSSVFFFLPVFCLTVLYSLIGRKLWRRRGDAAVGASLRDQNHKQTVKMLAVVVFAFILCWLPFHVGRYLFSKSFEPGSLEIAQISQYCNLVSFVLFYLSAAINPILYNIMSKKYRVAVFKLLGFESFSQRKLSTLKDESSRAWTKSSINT

Regarding `CC(=O)NCCCC[C@H](NC(=O)[C@@H](N)COCc1ccccc1)C(=O)N[C@@H](Cc1c[nH]c2ccccc12)C(=O)N1CCC(c2ccccc2)CC1` [(S)—N—((S)-3-(1H-indol-3-yl)-1-oxo-1-(4-phenylpiperidin-1-yl)propan-2-yl)-6-acetamido-2-((S)-2-amino-3-(benzyloxy)propanamido)hexanamide], in experiment [1] (Table 10, 10 μg/ml), the “GH release, second line of entry (no mark)” value (shortened to “GH release … (no mark)”) came to 571 ± 32 ng/mL and the “GH release, first line of entry (mark P + S)” value (shortened to “GH release … (mark P + S)”) was found to be 388 ± 41 ng/mL. Besides, in experiment [1] (Table 10, 30 μg/ml), the “GH release … (no mark)” value was 399 ± 24 ng/mL and the “GH release … (mark P + S)” value turned out to be 273 ± 39 ng/mL.
Regarding `CCOC(=O)c1cc2ccccc2cc1C(=O)N1CCC(c2ccccc2OC)CC1` [ethyl 3-(4-(2-methoxyphenyl)piperidine-1-carbonyl)-2-naphthoate], in experiment [1] (Table 10, 10 μg/ml), the “GH release … (no mark)” value came out at 480 ± 9 ng/mL and the “GH release … (mark P + S)” value is 373 ± 2 ng/mL. Besides, in experiment [1] (Table 10, 30 μg/ml), the “GH release … (no mark)” value worked out at 223 ± 22 ng/mL and the “GH release … (mark P + S)” value turned out to be 176 ± 11 ng/mL.
Regarding [dA][d2Nal][dK][dW]FK-NH2, the “Stimulated GH release (P + S)” value in experiment [2] came to 2884 ± 828 ng/mL.
In the case of `COc1ccccc1N1CCN(C(=O)c2cc3ccccc3cc2C(=O)N2CCN(c3ccccc3OC)CC2)CC1` [naphthalene-2,3-diylbis((4-(2-methoxyphenyl)piperazin-1-yl)methanone)], the “GH release … (no mark)” value in experiment [1] (Table 10, 1 μg/ml) was 654 ± 18 ng/mL; in experiment [1] (Table 10, 3 μg/ml) it was 442 ± 4 ng/mL; in experiment [1] (Table 10, 10 μg/ml), 537 ± 28 ng/mL and 648 ± 16 ng/mL; in experiment [1] (Table 10, 30 μg/ml), 309 ± 46 ng/mL. For the same molecule, the “GH release … (mark P + S)” value in experiment [1] (Table 10, 1 μg/ml) is 338 ± 3 ng/mL; in experiment [1] (Table 10, 3 μg/ml), 204 ± 10 ng/mL; in experiment [1] (Table 10, 10 μg/ml), 262 ± 4 ng/mL and 136 ± 11 ng/mL; in experiment [1] (Table 10, 30 μg/ml) it was 118 ± 8 ng/mL.
For “DAla-DcyclohexylAla-Ala-Ala-Phe-DPhe-Nle-NH2”, the “Unstimulated Basal GH release” value in experiment [1] (peptide 1 μg/ml) is 286 ± 75 ng/mL; in experiment [1] (peptide 3 μg/ml), 177 ± 44 ng/mL; in experiment [1] (peptide 10 μg/ml), 271 ± 38 ng/mL; in experiment [1] (peptide 30 μg/ml) it was 376 ± 28 ng/mL.
As to `CC(=O)N[C@@H](COCc1ccccc1)C(=O)N[C@@H](CCCCN)C(=O)N[C@H](Cc1c[nH]c2ccccc12)C(=O)N1CCC(c2ccccc2)CC1` [(S)—N—((R)-3-(1H-indol-3-yl)-1-oxo-1-(4-phenylpiperidin-1-yl)propan-2-yl)-2-((S)-2-acetamido-3-(benzyloxy)propanamido)-6-aminohexanamide], the “GH release … (mark P + S)” value was found to be 680 ± 13 ng/mL in experiment [1] (Table 11, 1 μg/ml); 489 ± 41 ng/mL in experiment [1] (Table 11, 3 μg/ml); 245 ± 16 ng/mL in experiment [1] (Table 11, 10 μg/ml).
With `N[C@H](Cc1c[nH]c2ccccc12)C(=O)N1CCC(c2ccccc2)CC1` [DTrp-4-phenylpiperdinamide, (R)-2-amino-3-(1H-indol-3-yl)-1-(4-phenylpiperidin-1-yl)propan-1-one], the “GH release … (no mark)” value in experiment [1] (Table 10, 1 μg/ml) was determined as 1085 ± 1 ng/mL; in experiment [1] (Table 10, 3 μg/ml), 917 ± 4 ng/mL; in experiment [1] (Table 10, 10 μg/ml), 344 ± 6 ng/mL; in experiment [1] (Table 10, 30 μg/ml) it was 486 ± 29 ng/mL. Besides, the “GH release … (mark P + S)” value in experiment [1] (Table 10, 1 μg/ml) worked out at 815 ± 26 ng/mL; in experiment [1] (Table 10, 3 μg/ml), 390 ± 35 ng/mL; in experiment [1] (Table 10, 10 μg/ml), 520 ± 61 ng/mL; in experiment [1] (Table 10, 30 μg/ml) it was 577 ± 24 ng/mL.
`NCC[C@H](N)C(=O)N[C@H](COCc1ccc2ccccc2c1)C(=O)N1CCC(c2ccccc2)CC1` [(S)-2,4-diamino-N—((R)-3-(naphthalen-2-ylmethoxy)-1-oxo-1-(4-phenylpiperidin-1-yl)propan-2-yl)butanamide]: in experiment [1] (Table 11, 10 μg/ml), the “GH release … (no mark)” value came out at 644 ± 33 ng/mL and the “GH release … (mark P + S)” value was determined as 794 ± 34 ng/mL. Besides, in experiment [1] (Table 11, 30 μg/ml), the “GH release … (no mark)” value came to 529 ± 20 ng/mL and the “GH release … (mark P + S)” value came out at 504 ± 20 ng/mL.
Regarding `C=C(C)CON=C(c1ccccc1)c1ccccc1` [O-(2-methylallyl) benzophonone oxime, O-(2-methylallyl)benzophenone oxime], in experiment [1] (Table 10, 10 μg/ml), the “GH release … (no mark)” value is 1281 ± 58 ng/mL and the “GH release … (mark P + S)” value was 929 ± 28 ng/mL. Also, in experiment [1] (Table 10, 30 μg/ml), the “GH release … (no mark)” value was 699 ± 53 ng/mL and the “GH release … (mark P + S)” value is 616 ± 23 ng/mL.
Consider `CC(C)(N)C(=O)N[C@H](COCc1ccccc1)C(=O)N1CCN(c2ccccc2)CC1` [αAibDSer(BZL)-N′-phenyl-N-piperazinamide, (R)-2-amino-N-(3-(benzyloxy)-1-oxo-1-(4-phenylpiperazin-1-yl)propan-2-yl)-2-methylpropanamide], for which, in experiment [1] (Table 10, 10 μg/ml), the “GH release … (no mark)” value amounted to 878 ± 30 ng/mL and the “GH release … (mark P + S)” value came out at 777 ± 34 ng/mL. In addition, in experiment [1] (Table 10, 30 μg/ml), the “GH release … (no mark)” value was 510 ± 15 ng/mL and the “GH release … (mark P + S)” value is 499 ± 18 ng/mL.
On to `NCCCC[C@@H](NC(=O)[C@@H](CO)NC(=O)c1ccccc1)C(=O)N[C@@H](Cc1c[nH]c2ccccc12)C(=O)N1CCC(c2ccccc2)CC1` [N—((R)-1-((R)-1-((S)-3-(1H-indol-3-yl)-1-oxo-1-(4-phenylpiperidin-1-yl)propan-2-ylamino)-6-amino-1-oxohexan-2-ylamino)-3-hydroxy-1-oxopropan-2-yl)benzamide], for which, in experiment [1] (Table 10, 3 μg/ml), the “GH release … (no mark)” value worked out at 432 ± 25 ng/mL and the “GH release … (mark P + S)” value was 393 ± 54 ng/mL. Further, in experiment [1] (Table 10, 10 μg/ml), the “GH release … (no mark)” value worked out at 353 ± 10 ng/mL and the “GH release … (mark P + S)” value worked out at 369 ± 30 ng/mL.
With `COc1ccccc1C1CCN(C(=O)[C@@H](Cc2c[nH]c3ccccc23)NC(=O)C(C)(C)N)CC1` [(R)—N-(3-(1H-indol-3-yl)-1-(4-(2-methoxyphenyl)piperidin-1-yl)-1-oxopropan-2-yl)-2-amino-2-methylpropanamide], in experiment [1] (Table 11, 10 μg/ml), the “GH release … (no mark)” value amounted to 441 ± 21 ng/mL and the “GH release … (mark P + S)” value came out at 365 ± 2 ng/mL. In experiment [1] (Table 11, 30 μg/ml), the “GH release … (no mark)” value came out at 384 ± 16 ng/mL and the “GH release … (mark P + S)” value was found to be 375 ± 30 ng/mL.
Turning to `COC(=O)c1cc2ccccc2cc1C(=O)Nc1ccc(C)cc1` [methyl 3-(p-tolylcarbamoyl)-2-naphthoate], in experiment [1] (Table 11, 10 μg/ml), the “GH release … (no mark)” value was 1149 ± 33 ng/mL and the “GH release … (mark P + S)” value worked out at 754 ± 32 ng/mL. In experiment [1] (Table 11, 30 μg/ml), the “GH release … (no mark)” value stood at 886 ± 29 ng/mL and the “GH release … (mark P + S)” value came out at 498 ± 26 ng/mL.
On to `N[C@H](COCc1ccccc1)C(=O)N1CCN(c2ccccc2)CC1` [D Ser(BZL)-N′-phenyl-N-piperazinamide, (R)-2-amino-3-(benzyloxy)-1-(4-phenylpiperazin-1-yl)propan-1-one], for which, in experiment [1] (Table 10, 10 μg/ml), the “GH release … (no mark)” value worked out at 719 ± 26 ng/mL and the “GH release … (mark P + S)” value stood at 585 ± 10 ng/mL. In addition, in experiment [1] (Table 10, 30 μg/ml), the “GH release … (no mark)” value came to 435 ± 0 ng/mL and the “GH release … (mark P + S)” value was 368 ± 2 ng/mL.

Values taken from patent publication US8536120B2 (The Administrators of The Tulane Educational Fund, priority 2006, dated 2013).
